Test results from patent US4130559A, “Method for the preparation of 6-aminopenicillinic acid derivatives” (priority 1977, dated 1978).
Values after ≈ are worked out from the molar mass of the structure shown. Read-outs that look alike come from different tables or passages of the source.

How the values were obtained:
in vivo = details: mouse, iv
Prot.vulgaris = experiment: Minimal bacteriostatic concentration; format: cell-based; details: Proteus vulgaris, sodium salts
Procedure: (§1) All compounds of this group were prepared in the form of sodium salts. Bactericidal activity, degree of hydrolysis with staphylococc penicillinase and acid resistance of the penicillins were determined.

[1] = tested on: Staph. aureus 209p (adapted to benzylpenicillin); experiment: Minimal bacteriostatic concentration; format: cell-based; details: Staphylococcus aureus, read-out: Minimal Bacteriostatic Concentration
Procedure: as §1

Myco smegmatis = experiment: Minimal bacteriostatic concentration; format: cell-based; details: sodium salts
Procedure: as §1

E.coli O-55 = experiment: Minimal bacteriostatic concentration; format: cell-based; details: Escherichia coli
Procedure: as §1

Staph. aureus 209p = experiment: Minimal bacteriostatic concentration; format: cell-based; details: Staphylococcus aureus, sodium salts
Procedure: as §1

B.Subtitis ATCC6633 = experiment: Minimal bacteriostatic concentration; format: cell-based; details: sodium salts
Procedure: as §1

Staph. albus = experiment: Minimal bacteriostatic concentration; format: cell-based; details: sodium salts
Procedure: as §1

Ps.aeruginosa = experiment: Minimal bacteriostatic concentration; format: cell-based; details: Pseudomonas aeruginosa, sodium salts
Procedure: as §1

E.typhi = experiment: Minimal bacteriostatic concentration; format: cell-based; details: read-out: Minimal Bacteriostatic Concentration
Procedure: as §1

Strept. pyrogenes = experiment: Minimal bacteriostatic concentration; format: cell-based; details: sodium salts
Procedure: as §1

Vibrion Metschnicoff = experiment: Minimal bacteriostatic concentration; format: cell-based; details: read-out: Minimal Bacteriostatic Concentration
Procedure: as §1

Sh.dysenteriae Flexneri = experiment: Minimal bacteriostatic concentration; format: cell-based; details: Shigella dysenteriae, read-out: Minimal Bacteriostatic Concentration
Procedure: as §1

[2] = target: T1, staphylococc penicillinase (Staphylococcus aureus, UniProt P00807); experiment: Hydrolysis/inactivation by staphylococc penicillinase; format: biochemical; details: for Quantity of inactivated units of compounds under the action of 1 unit of staphylococc penicillinase: Table 5
Procedure: as §1
The substitution of propoxy radical for iso-radical in this position is not accompanied by areduction of penicillin stability against penicillinase which is not observed in the orto- and para-positions. During the subsequent hours of inactivation the rate of hydrolysis of penicillins slightly increases. However, even when observed in dynamics, their stability against penicillianase still persists during 4-hour-inactivation.

[3] = Acid resistance (half-life period); format: physicochemical
Procedure: as §1

[4] = target: T1, staphylococc penicillinase; details: cited from earlier work
[5] = O55, read-out: Minimal Bacteriostatic Concentration
[6] = Vibrion Metschnicoff, sodium salts
[7] = acid ph 1.3, Temperature 37° C, pH 1.3, Table 1, cyclopentyl series, read-out: τ1/2 half-life period (acid resistance)
[8] = O55, E.coli O-55, sodium salts, read-out: Minimal Bacteriostatic Concentration
[9] = acid ph 1.3, pH 1.3, under conditions of our experiments, read-out: half-life period

T1 sequence (P00807 25-281): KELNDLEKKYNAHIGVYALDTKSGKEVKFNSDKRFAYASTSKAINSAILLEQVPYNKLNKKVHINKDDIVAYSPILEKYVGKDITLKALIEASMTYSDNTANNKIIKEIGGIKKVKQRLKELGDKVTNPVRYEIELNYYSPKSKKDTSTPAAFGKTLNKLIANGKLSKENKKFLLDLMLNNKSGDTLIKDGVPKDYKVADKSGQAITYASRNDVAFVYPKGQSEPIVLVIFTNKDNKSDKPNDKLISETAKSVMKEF

Row | SMILES | MTD (in vivo) [mg/kg] | MIC (Prot.vulgaris) [µg/mL] | MIC [1] [µg/mL] | MIC (Myco smegmatis) [µg/mL] | MIC (E.coli O-55; [5]) [µg/mL] | MIC (Staph. aureus 209p) [µg/mL] | MIC (B.Subtitis ATCC6633) [µg/mL] | MIC (Staph. albus) [µg/mL] | MIC (Ps.aeruginosa) [µg/mL] | MIC (E.typhi) [µg/mL] | MIC (Strept. pyrogenes) [µg/mL] | MIC (Vibrion Metschnicoff; [6]) [µg/mL] | MIC (Sh.dysenteriae Flexneri) [µg/mL] | Quantity of inactivated units of compounds under the action of 1 unit of staphylococc penicillinase [2] [units] | half-life [3, 7] [min] | MIC (E.coli O-55; [8]) [µg/mL] | penicillinase resistance (background statement) [4] | half-life [3, 9] [min] | MIC (Vibrion Metschnicoff) [µg/mL] | stability against penicillinase ([2]; during the first hour after inactivation, 60 min) [%]
1 | CCCOc1cccc(C2(C(=O)NC3C(=O)N4C3SC(C)(C)C4C(=O)O)CCCC2)c1 (stereo not drawn) [Compound IX (Table 1), 1-(m-propoxyphenyl)Cyclopentyl-1-Penicillin] | 1500 | 125 | > 500 | > 500 | 250 (≈ 560 µM) | 0.39 | 0.9 | 0.19 | > 500 | 15.6 (≈ 34.9 µM) | 0.39 | 3.9 | 62.5 (≈ 140 µM) | 10.6 | 222 |  |  |  |  | 
2 | CCOc1ccccc1C1(C(=O)NC2C(=O)N3C2SC(C)(C)C3C(=O)O)CCCC1 (stereo not drawn) [Compound III (Table 1)] | 1000 | 500 | > 500 | > 500 |  | 0.78 | 7.8 | 0.39 | > 500 | 62.5 (≈ 144 µM) | 0.78 | 0.9 | 125 (≈ 289 µM) | 20.5 | 102 | 500 |  |  |  | 
3 | CCCOc1ccccc1C1(C(=O)NC2C(=O)N3C2SC(C)(C)C3C(=O)O)CCCC1 (stereo not drawn) [Compound IV (Table 1)] | 1500 | 500 | > 500 | > 500 |  | 0.19 | 15.6 | 0.39 | > 500 | 62.5 (≈ 140 µM) | 0.39 | 0.9 | 125 (≈ 280 µM) | 20.45 | 14.9 | > 125 |  |  |  | 
4 | CC(C)Oc1cccc(C2(C(=O)NC3C(=O)N4C3SC(C)(C)C4C(=O)O)CCCC2)c1 (stereo not drawn) [Compound X (Table 1)] | 1500 | 250 | > 500 | > 500 | 250 (≈ 560 µM) | 0.39 | 7.8 | 0.19 | > 500 | 15.6 (≈ 34.9 µM) | 0.19 | 3.9 | 62.5 (≈ 140 µM) | 27.5 | 25.9 |  |  |  |  | 
5 | CCCCOc1ccccc1C1(C(=O)NC2C(=O)N3C2SC(C)(C)C3C(=O)O)CCCC1 (stereo not drawn) [Compound VI (Table 1), 1-(o-Butoxyphenyl)Cyclopentyl-1-Pencillin] | 1000 | 500 | > 500 | > 500 |  | 0.39 | 15.6 | 0.19 | > 500 | 125 (≈ 271 µM) | 0.39 | 1.56 | 250 (≈ 543 µM) | 16.6 | 14.8 | 500 |  |  |  | 
6 | COc1cccc(OC)c1C(=O)N[C@@H]1C(=O)N2[C@@H]1SC(C)(C)[C@@H]2C(=O)O [methycillin] |  |  |  |  |  |  |  |  |  |  |  |  |  |  |  |  | penicillinase resistant |  |  | 
7 | CCOc1cccc(C2(C(=O)NC3C(=O)N4C3SC(C)(C)C4C(=O)O)CCCC2)c1 (stereo not drawn) [Compound VIII (Table 1)] | 1500 | 250 | > 500 | > 500 | 250 (≈ 578 µM) | 0.39 | 0.9 | 0.19 | > 500 | 31.2 (≈ 72.1 µM) | 0.39 | 3.9 | 125 (≈ 289 µM) | 10.0 | 189 |  |  |  |  | 
8 | COc1ccccc1C1(C(=O)NC2C(=O)N3C2SC(C)(C)C3C(=O)O)CCCC1 (stereo not drawn) [Compound II (Table 1)] | 2000 | 500 | > 500 | > 500 |  | 0.9 | 3.9 | 0.9 | > 500 | 62.5 (≈ 149 µM) | 0.78 |  | 62.5 (≈ 149 µM) | 28.8 | 187 | 250 |  |  |  | 
9 | CC1(C)S[C@@H]2[C@H](NC(=O)Cc3ccccc3)C(=O)N2[C@H]1C(=O)O [Benzyl Penicillin, benzylpenicillin, reference compound] |  | 1.56 | > 500 | > 500 | 31.2 (≈ 93.3 µM) | 0.012 | 0.048 | 0.006 | > 500 | 0.39 (≈ 1.17 µM) | 0.003 | 0.78 | 3.12 (≈ 9.33 µM) |  |  |  |  | 2.1 |  | 
10 | CC(C)Oc1ccccc1C1(C(=O)NC2C(=O)N3C2SC(C)(C)C3C(=O)O)CCCC1 (stereo not drawn) [Compound V (Table 1)] | 1000 to 1500 | 500 | > 500 | > 500 |  | 0.39 | 7.8 | 0.39 | > 500 | 125 (≈ 280 µM) | 0.78 | 0.9 | 250 (≈ 560 µM) | 12.0 | 10.3 | 500 |  |  |  | 
11 | COc1cccc(C2(C(=O)NC3C(=O)N4C3SC(C)(C)C4C(=O)O)CCCC2)c1 (stereo not drawn) [Compound VII (Table 1)] | 2500 | 125 | > 500 | > 500 |  | 0.39 | 1.56 | 0.39 | > 500 |  | 0.39 |  | 125 (≈ 299 µM) | 14.2 | 288 | 250 |  |  |  | 
12 | CC1(C)SC2C(NC(=O)C3(c4ccccc4)CCCC3)C(=O)N2C1C(=O)O (stereo not drawn) [Compound I (Table 1), 1-Phenylcyclopentyl-1-Penicillin] | 500 | 250 | > 500 | > 500 |  | 0.048 | 0.09 | 0.048 | > 500 | 62.5 (≈ 161 µM) | 0.012 |  | 125 (≈ 322 µM) | 0 |  | 500 |  | 26 | 0.24 (≈ 0.618 µM) | 100
